# In ChEMBL document CHEMBL3608269, “Triazole-Linked Glycolipids Enhance the Susceptibility of MRSA to β-Lactam Antibiotics” (ACS Med Chem Lett, 2015):
# Activity calls are given as the source filed them. The rule behind the calls is not given here.
# Columns and labels:
# Staphylococcus aureus [1] = assay: Potentiation of cephalothin-mediated antibacterial activity against methicillin-resistant Staphylococcus aureus ATCC 43300 assessed as decrease in cephalothin MIC at 32 ug/ml by checkerboard method relative to control; type: functional
# Staphylococcus aureus [2] = assay: Potentiation of oxacillin-mediated antibacterial activity against methicillin-resistant Staphylococcus aureus ATCC 43300 assessed as growth inhibition at 32 ug/ml measured within 6 hrs by time kill assay; type: functional, organism-based
# Staphylococcus aureus [3] = assay: Potentiation of cefaclor-mediated antibacterial activity against methicillin-resistant Staphylococcus aureus ATCC 43300 assessed as decrease in cefaclor MIC at 32 ug/ml by checkerboard method relative to control; type: functional
# Staphylococcus aureus [4] = assay: Potentiation of oxacillin-mediated antibacterial activity against methicillin-resistant Staphylococcus aureus R16 clinical isolate assessed as decrease in oxacillin MIC at 32 ug/ml after 20 to 24 hrs by CLSI method relative to control; type: functional
# Staphylococcus aureus [5] = assay: Potentiation of oxacillin-mediated antibacterial activity against methicillin-resistant Staphylococcus aureus ATCC 43300 assessed as appearance of rougher bacterial surface at 32 ug/ml after 4 hrs by scanning electron microscopic analysis; type: functional, organism-based
# Staphylococcus aureus [6] = assay: Potentiation of cefepime mediated antibacterial activity against methicillin-resistant Staphylococcus aureus ATCC 43300 assessed as decrease in cefepime MIC at 32 ug/ml by checkerboard method relative to control; type: functional
# Staphylococcus aureus [7] = assay: Potentiation of oxacillin-mediated antibacterial activity against methicillin-resistant Staphylococcus aureus R53 clinical isolate assessed as decrease in oxacillin MIC at 16 ug/ml after 20 to 24 hrs by CLSI method relative to control; type: functional
# Staphylococcus aureus [8] = assay: Potentiation of oxacillin-mediated antibacterial activity against methicillin-resistant Staphylococcus aureus R50 clinical isolate assessed as decrease in oxacillin MIC at 16 ug/ml after 20 to 24 hrs by CLSI method relative to control; type: functional
# Staphylococcus aureus [9] = assay: Potentiation of cefoxitin-mediated antibacterial activity against methicillin-resistant Staphylococcus aureus ATCC 43300 assessed as decrease in cefoxitin MIC at 32 ug/ml by checkerboard method relative to control; type: functional
# Staphylococcus aureus [10] = assay: Potentiation of oxacillin-mediated antibacterial activity against methicillin-resistant Staphylococcus aureus ATCC 43300 at 32 ug/ml after 20 to 24 hrs by CLSI method; type: functional
# Staphylococcus aureus [11] = assay: Potentiation of cephamandole-mediated antibacterial activity against methicillin-resistant Staphylococcus aureus ATCC 43300 assessed as decrease in cephamandole MIC at 32 ug/ml by checkerboard method relative to control; type: functional
# Staphylococcus aureus [12] = assay: Potentiation of cefoperazone mediated antibacterial activity against methicillin-resistant Staphylococcus aureus ATCC 43300 assessed as decrease in cefoperazone MIC at 32 ug/ml by checkerboard method relative to control; type: functional
# Staphylococcus aureus [13] = assay: Potentiation of oxacillin-mediated antibacterial activity against methicillin-resistant Staphylococcus aureus R15 clinical isolate assessed as decrease in oxacillin MIC at 32 ug/ml after 20 to 24 hrs by CLSI method relative to control; type: functional
# Staphylococcus aureus [14] = assay: Potentiation of oxacillin-mediated antibacterial activity against methicillin-resistant Staphylococcus aureus R15 clinical isolate at 32 ug/ml after 20 to 24 hrs by CLSI method; type: functional
# Staphylococcus aureus [15] = assay: Potentiation of oxacillin-mediated antibacterial activity against methicillin-resistant Staphylococcus aureus ATCC 43300 assessed as decrease in oxacillin MIC at 32 ug/ml by checkerboard method relative to control; type: functional
# Staphylococcus aureus [16] = assay: Potentiation of oxacillin-mediated antibacterial activity against methicillin-resistant Staphylococcus aureus R16 clinical isolate at 32 ug/ml after 20 to 24 hrs by CLSI method; type: functional
# Staphylococcus aureus [17] = assay: Potentiation of oxacillin-mediated antibacterial activity against methicillin-resistant Staphylococcus aureus R304 clinical isolate at 32 ug/ml after 20 to 24 hrs by CLSI method; type: functional
# Staphylococcus aureus [18] = assay: Potentiation of oxacillin-mediated antibacterial activity against methicillin-resistant Staphylococcus aureus R304 clinical isolate assessed as decrease in oxacillin MIC at 32 ug/ml after 20 to 24 hrs by CLSI method relative to control; type: functional
# Staphylococcus aureus [19] = assay: Potentiation of penicillin-mediated antibacterial activity against methicillin-resistant Staphylococcus aureus ATCC 43300 assessed as decrease in penicillin MIC at 32 ug/ml by checkerboard method relative to control; type: functional
# Staphylococcus aureus [20] = assay: Potentiation of cefotaxime mediated antibacterial activity against methicillin-resistant Staphylococcus aureus ATCC 43300 assessed as decrease in cefotaxime MIC at 32 ug/ml by checkerboard method relative to control; type: functional
compound,measurement,setting,value
CCCCCCCCCCCCOCc1cn([C@@H]2O[C@H](CO)[C@@H](O)[C@H](O)[C@H]2O)nn1,fold change (FC),Staphylococcus aureus [1],<=256
same,growth inhibition (GI),Staphylococcus aureus [2],Active
same,fold change (FC),Staphylococcus aureus [3],<=256
same,MIC,Staphylococcus aureus [4],4 µg/mL
same,Activity,Staphylococcus aureus [5],Active
same,fold change (FC),Staphylococcus aureus [6],<=256
same,MIC,Staphylococcus aureus [7],8 µg/mL
same,MIC,Staphylococcus aureus [8],8 µg/mL
same,fold change (FC),Staphylococcus aureus [9],<=256
same,MIC,Staphylococcus aureus [10],1 µg/mL
same,fold change (FC),Staphylococcus aureus [11],<=256
same,fold change (FC),Staphylococcus aureus [12],<=256
same,MIC,Staphylococcus aureus [13],2 µg/mL
same,MIC,Staphylococcus aureus [14],64 µg/mL
same,fold change (FC),Staphylococcus aureus [15],<=256
same,MIC,Staphylococcus aureus [16],64 µg/mL
same,MIC,Staphylococcus aureus [17],256 µg/mL
same,MIC,Staphylococcus aureus [18],2 µg/mL
same,fold change (FC),Staphylococcus aureus [19],<=256
same,fold change (FC),Staphylococcus aureus [20],<=256
